According to US8362017B2, “C-kit modulators and methods of use” (Exelixis, Inc., priority 2003, dated 2013):
pIC50: −log10 of the molar value.

Each molecule was assayed against c-Kit kinase (Homo sapiens, UniProt P10721) (assay: c-Kit biochemical activity assay (AlphaScreen)). Conditions: biotinylated poly(Glu, Tyr) substrate, 1 hr at ambient temperature.
Protocol: Kinase activity and compound inhibition are investigated using one or more of the three assay formats described below. The ATP concentrations for each assay are selected to be close to the Michaelis-Menten constant (KM) for each individual kinase. Dose-response experiments are performed at 10 different inhibitor concentrations in a 384-well plate format. The data are fitted to four-parameter equation (2) below; where Y is the observed signal, X is the inhibitor concentration, Min is the background signal in the absence of enzyme (0% enzyme activity), Max is the signal in the absence of inhibitor (100% enzyme activity), IC50 is the inhibitor concentration at 50% enzyme inhibition and H represents the empirical Hill's slope to measure the cooperativity. Typically H is close to unity. Y=Min+(Max−Min)/(1+(X/IC50)^H) Equation (2) c-Kit Assay
c-Kit biochemical activity was assessed using AlphaScreen™ (Perldn Elmer) technology, described above. Test compounds, ATP, biotinylated poly(Glu, Tyr) and c-Kit kinase were combined in a volume of 20 μL in a 384-well white, medium binding microtiter plate (Greiner). Reaction mixtures were incubated for 1 hr at ambient temperature. Reactions were quenched by addition of 10 μL of 15-30 mg/mL AlphaScreen bead suspension containing 75 mM Hepes, pH 7.4, 300 mM NaCl, 120 mM EDTA, 0.3% BSA and 0.03% Tween-20. After 16 hr incubation at ambient temperature plates were read using an AlphaQuest reader (Perkin Elmer).

Chain of c-Kit kinase (P10721 26-976): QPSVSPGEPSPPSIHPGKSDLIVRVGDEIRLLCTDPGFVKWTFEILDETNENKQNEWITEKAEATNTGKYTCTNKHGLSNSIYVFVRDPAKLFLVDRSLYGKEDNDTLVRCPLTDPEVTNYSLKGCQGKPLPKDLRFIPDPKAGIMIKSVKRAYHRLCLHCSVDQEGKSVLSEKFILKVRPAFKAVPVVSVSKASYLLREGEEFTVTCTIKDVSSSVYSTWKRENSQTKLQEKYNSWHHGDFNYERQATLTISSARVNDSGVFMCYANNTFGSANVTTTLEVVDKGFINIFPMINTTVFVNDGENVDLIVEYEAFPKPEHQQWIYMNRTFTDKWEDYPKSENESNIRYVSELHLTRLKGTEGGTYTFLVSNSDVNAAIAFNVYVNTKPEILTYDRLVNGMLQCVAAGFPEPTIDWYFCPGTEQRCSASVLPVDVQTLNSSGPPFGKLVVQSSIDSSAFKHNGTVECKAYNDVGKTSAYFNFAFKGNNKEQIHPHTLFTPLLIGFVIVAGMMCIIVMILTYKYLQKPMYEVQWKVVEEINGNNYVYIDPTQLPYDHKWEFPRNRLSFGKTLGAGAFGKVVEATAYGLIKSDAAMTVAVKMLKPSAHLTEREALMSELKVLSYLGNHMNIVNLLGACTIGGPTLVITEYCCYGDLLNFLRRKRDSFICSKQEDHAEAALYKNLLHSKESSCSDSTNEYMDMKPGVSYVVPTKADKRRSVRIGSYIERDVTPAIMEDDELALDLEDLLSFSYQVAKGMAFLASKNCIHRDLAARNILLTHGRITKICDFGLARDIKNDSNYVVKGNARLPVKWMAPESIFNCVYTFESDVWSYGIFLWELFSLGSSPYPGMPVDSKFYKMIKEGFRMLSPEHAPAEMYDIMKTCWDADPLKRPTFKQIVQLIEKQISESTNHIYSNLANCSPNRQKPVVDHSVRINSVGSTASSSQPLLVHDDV

| pIC50 | SMILES |
| --- | --- |
| 5.30 to 6.30 | COC(=O)c1cn(-c2cccc(OCC(=O)Nc3ccc(Cl)c(C(F)(F)F)c3)c2)nn1 [Example 29, methyl 1-{3-[(2-{[4-chloro-3-(trifluoromethyl)phenyl]amino}-2-oxoethyl)oxy]phenyl}-1H-1,2,3-triazole-4-carboxylate] |
| 5.30 to 6.30 | CC(C)(C)OC(=O)N1CCCC(NC(=O)c2nc(-c3cccc(CNC(=O)Nc4ccc(Cl)c(C(F)(F)F)c4)c3)cnc2N)C1 (stereo not drawn) [Example 239, 1,1-dimethylethyl 3-({[3-amino-6-(3-{[({[4-chloro-3-(trifluoromethyl)phenyl]amino}carbonyl)amino]methyl}phenyl)pyrazin-2-yl]carbonyl}amino)piperidine-1-carboxylate] |
| 5.30 to 6.30 | O=C(NCc1ccc(-c2cccnc2F)cc1)Nc1ccc(Cl)c(C(F)(F)F)c1 [Example 254, N-[4-chloro-3-(trifluoromethyl)phenyl]-N′-{[4-(2-fluoropyridin-3-yl)phenyl]methyl}urea] |
| 5.30 to 6.30 | COc1ccc(Cl)cc1NC(=O)OCc1cccc(-c2cccnc2)c1 [Example 234, (3-pyridin-3-ylphenyl)methyl [5-chloro-2-(methyloxy)phenyl]carbamate] |
| 5.30 to 6.30 | O=C(NCc1ccc(-c2cccnc2Cl)cc1)Nc1ccc(Cl)c(C(F)(F)F)c1 [Example 252, N-{[4-(2-chloropyridin-3-yl)phenyl]methyl}-N′-[4-chloro-3-(trifluoromethyl)phenyl]urea] |
| 5.30 to 6.30 | O=C(Nc1ccc(Cl)c(C(F)(F)F)c1)OCc1ccc(-c2cnc(N3CCNCC3)nc2)cc1 [Example 250, [4-(2-piperazin-1-ylpyrimidin-5-yl)phenyl]methyl [4-chloro-3-(trifluoromethyl)phenyl]carbamate] |
| 5.30 to 6.30 | CC(C)(C)OC(=O)N1CCCC(NC(=O)c2nc(-c3ccc(CNC(=O)Nc4ccc(Cl)c(C(F)(F)F)c4)cc3)cnc2N)C1 (stereo not drawn) [Example 240, 1,1-dimethylethyl 3-({[3-amino-6-(4-{[({[4-chloro-3-(trifluoromethyl)phenyl]amino}carbonyl)amino]methyl}phenyl)pyrazin-2-yl]carbonyl}amino)piperidine-1-carboxylate] |
| 6.30 to 7.30 | O=C(NCc1cccc(-c2cn[nH]c2)c1)Nc1ccc(Cl)c(C(F)(F)F)c1 [Example 247, N-[4-chloro-3-(trifluoromethyl)phenyl]-N′-{[3-(1H-pyrazol-4-yl)phenyl]methyl}urea] |
| 6.30 to 7.30 | O=C(Nc1cc(C(F)(F)F)ccn1)OCc1cccc(-n2cnnn2)n1 [Example 265, [6-(1H-tetrazol-1-yl)pyridin-2-yl]methyl [4-(trifluoromethyl)pyridin-2-yl]carbamate] |
| 5.30 to 6.30 | O=C(NCc1cccc(-c2cncc3ccccc23)c1)Nc1ccc(Cl)c(C(F)(F)F)c1 [Example 263, N-[4-chloro-3-(trifluoromethyl)phenyl]-N′-[(3-isoquinolin-4-ylphenyl)methyl]urea] |
| 5.30 to 6.30 | O=C(Nc1ccc(Cl)c(C(F)(F)F)c1)OCc1cccc(-c2cncnc2)n1 [Example 262, (6-pyrimidin-5-ylpyridin-2-yl)methyl [4-chloro-3-(trifluoromethyl)phenyl]carbamate] |
| 5.30 to 6.30 | CSc1ccc(-c2cccc(CNC(=O)Nc3ccc(Cl)c(C(F)(F)F)c3)c2)nc1 [Example 258, N-[4-chloro-3-(trifluoromethyl)phenyl]-N′-({3-[5-(methylthio)pyridin-2-yl]phenyl}methyl)urea] |
| 6.30 to 7.30 | Nc1ncc(-c2cccc(CNC(=O)Nc3ccc(Cl)c(C(F)(F)F)c3)c2)nc1C(=O)NC1CCCNC1 (stereo not drawn) [Example 241, 3-amino-6-(3-{[({[4-chloro-3-(trifluoromethyl)phenyl]amino}carbonyl)amino]methyl}phenyl)-N-piperidin-3-ylpyrazine-2-carboxamide] |
| 5.30 to 6.30 | CC(C)(C)OC(=O)N1CCN(C(=O)c2nc(-c3ccc(CNC(=O)Nc4ccc(Cl)c(C(F)(F)F)c4)cc3)cnc2N)CC1 [Example 244, 1,1-dimethylethyl 4-{[3-amino-6-(4-{[({[4-chloro-3-(trifluoromethyl)phenyl]amino}carbonyl)amino]methyl}phenyl)pyrazin-2-yl]carbonyl}piperazine-1-carboxylate] |
| 5.30 to 6.30 | O=C(Nc1ccc(Cl)c(C(F)(F)F)c1)OCc1ccc(-n2cnnn2)cc1 [Example 235, [4-(1H-tetrazol-1-yl)phenyl]methyl [4-chloro-3-(trifluoromethyl)phenyl]carbamate] |
| 5.30 to 6.30 | CC(C)(C)OC(=O)N1CCN(C(=O)c2nc(-c3cccc(CNC(=O)Nc4ccc(Cl)c(C(F)(F)F)c4)c3)cnc2N)CC1 [Example 243, 1,1-dimethylethyl 4-{[3-amino-6-(3-{[({[4-chloro-3-(trifluoromethyl)phenyl]amino}carbonyl)amino]methyl}phenyl)pyrazin-2-yl]carbonyl}piperazine-1-carboxylate] |
| 5.30 to 6.30 | O=C(NCc1ccc(-c2cncc3ccccc23)cc1)Nc1ccc(Cl)c(C(F)(F)F)c1 [Example 264, N-[4-chloro-3-(trifluoromethyl)phenyl]-N′-[(4-isoquinolin-4-ylphenyl)methyl]urea] |
| 5.30 to 6.30 | O=C(Nc1cccc(C(F)(F)F)n1)OCc1cccc(-n2cnnn2)c1 [Example 256, [3-(1H-tetrazol-1-yl)phenyl]methyl [6-(trifluoromethyl)pyridin-2-yl]carbamate] |
| 6.30 to 7.30 | Nc1ncc(-c2ccc(CNC(=O)Nc3ccc(Cl)c(C(F)(F)F)c3)cc2)nc1C(=O)NC1CCCNC1 (stereo not drawn) [Example 242, 3-amino-6-(4-{[({[4-chloro-3-(trifluoromethyl)phenyl]amino}carbonyl)amino]methyl}phenyl)-N-piperidin-3-ylpyrazine-2-carboxamide] |
| 6.30 to 7.30 | O=C(NCc1cccc(-c2cccnc2Cl)c1)Nc1ccc(Cl)c(C(F)(F)F)c1 [Example 251, N-{[3-(2-chloropyridin-3-yl)phenyl]methyl}-N′-[4-chloro-3-(trifluoromethyl)phenyl]urea] |
| 5.30 to 6.30 | Cc1ccc(NC(=O)OCc2ccc(-c3cncnc3)cc2)cc1C [Example 237, (4-pyrimidin-5-ylphenyl)methyl (3,4-dimethylphenyl)carbamate] |
| 5.30 to 6.30 | Cc1ccc(-c2cccc(COC(=O)Nc3ccc(Cl)c(C(F)(F)F)c3)c2)c(C)n1 [Example 259, [3-(2,6-dimethylpyridin-3-yl)phenyl]methyl [4-chloro-3-(trifluoromethyl)phenyl]carbamate] |
| 5.30 to 6.30 | COc1ccc(Cl)cc1NC(=O)OCc1cccc(-c2cncnc2)c1 [Example 236, (3-pyrimidin-5-ylphenyl)methyl [5-chloro-2-(methyloxy)phenyl]carbamate] |
| 5.30 to 6.30 | O=C(Nc1ccc(Cl)c(C(F)(F)F)c1)OCc1ccc(-c2cn[nH]c2)cc1 [Example 267, [4-(1H-pyrazol-4-yl)phenyl]methyl [4-chloro-3-(trifluoromethyl)phenyl]carbamate] |
| 5.30 to 6.30 | O=C(NCc1ccc(-c2cn[nH]c2)cc1)Nc1ccc(Cl)c(C(F)(F)F)c1 [Example 248, N-[4-chloro-3-(trifluoromethyl)phenyl]-N′-{[4-(1H-pyrazol-4-yl)phenyl]methyl}urea] |
| 6.30 to 7.30 | O=C(Nc1cc(C(F)(F)F)ccn1)OCc1cccc(-n2cnnn2)c1 [Example 257, [3-(1H-tetrazol-1-yl)phenyl]methyl [4-(trifluoromethyl)pyridin-2-yl]carbamate] |
| 5.30 to 6.30 | Nc1ncc(-c2cccc(CNC(=O)Nc3ccc(Cl)c(C(F)(F)F)c3)c2)nc1C(=O)N1CCNCC1 [Example 245, N-({3-[5-amino-6-(piperazin-1-ylcarbonyl)pyrazin-2-yl]phenyl}methyl)-N′-[4-chloro-3-(trifluoromethyl)phenyl]urea] |
| 5.30 to 6.30 | Nc1ncc(-c2ccc(CNC(=O)Nc3ccc(Cl)c(C(F)(F)F)c3)cc2)nc1C(=O)N1CCNCC1 [Example 246, N-({4-[5-amino-6-(piperazin-1-ylcarbonyl)pyrazin-2-yl]phenyl}methyl)-N′-[4-chloro-3-(trifluoromethyl)phenyl]urea] |

| SMILES | pIC50 |
| --- | --- |
| Cc1ccc(-n2cnnn2)cc1OCC(=O)Nc1ccc(Cl)c(C(F)(F)F)c1 [Example 18, N-[4-chloro-3-(trifluoromethyl)phenyl]-2-{[2-methyl-5-(1H-tetrazol-1-yl)phenyl]oxy}acetamide] | < 5.30 |
| O=C(COc1ccc(-c2cncnc2)cc1)Nc1ccc(Cl)c(C(F)(F)F)c1 [Example 7, N-[4-chloro-3-(trifluoromethyl)phenyl]-2-[(4-pyrimidin-5-ylphenyl)oxy]acetamide] | 6.30 to 7.30 |
| O=C(NC(=O)c1cccc(-n2cnnn2)c1)Nc1ccc(Cl)c(C(F)(F)F)c1 [Example 13, 1-(4-chloro-3-trifluoromethyl-phenyl)-3-(3-tetrazol-1-yl-benzoyl)-urea] | 5.30 to 6.30 |
| O=C(NCc1cccc(-c2ccc3nccnc3c2)c1)Nc1ccc(Cl)c(C(F)(F)F)c1 [Example 11, 1-(4-Chloro-3-trifluoromethyl-phenyl)-3-(3-quinoxalin-6-yl-benzyl)urea] | 6.30 to 7.30 |
| Cc1nnnn1-c1cccc(OCC(=O)Nc2ccc(Cl)c(C(F)(F)F)c2)c1 [Example 5, N-[4-chloro-3-(trifluoromethyl)phenyl]-2-{[3-(5-methyl-1H-tetrazol-1-yl)phenyl]oxy}acetamide] | 5.30 to 6.30 |
